Experimental data: patent US20130338457A1, “METHOD AND APPARATUS FOR DETECTING DISEASES ASSOCIATED WITH THE EYE” (THE REGENTS OF THE UNIVERSITY OF MICHIGAN, priority 2007, published 2013)

How the values were obtained:
Assay type in all cases: cell-based
human retina cells = experiment: FA production in fresh human retina pieces ex vivo; conditions: FIG. 25; for FA production with apoptotic stimulus: human retina pieces
Method: (§1) To provide an in vitro correlate of the imaging method described above, studies were pursued of: RPE cells in vitro and fresh pieces of rat and human retina ex vivo. Both retinal fragments and RPE cells serve as good in vitro models of the human retina. To model the apoptotic events taking place in the eye, apoptotic stimuli (H2O2 and ceramide) were added to these samples. These stimuli are particularly judicious choices because both oxidative molecules and ceramide have been reported to be key mediators of retinal apoptosis.
(§2) At lethal levels, FA correlates with apoptosis measured by TUNEL and other assays.

rat neural retina cells = experiment: FA production in fresh rat retina pieces ex vivo; conditions: FIG. 26; for FA production with apoptotic stimulus: rat neural retina
Method: as §1, §2

[1] = tested on: human retinal pigment epithelial (HRPE) cells; experiment: Flavoprotein autofluorescence (FA) measurement in cultured HRPE cells; conditions: for FA after exposure to pro-apoptotic agent: exposure for 2 hours, H2O2 0.2 mM, C2-ceramide 50 μM
Method: HRPE cells were isolated from donor eyes by enzymatic digestion as previously described. Briefly, the sensory retina was separated gently from the HRPE monolayer, and the HRPE cells were removed from Bruch's membrane using one hour incubation with papain. Isolated HRPE cells were grown into Falcon Primaria flasks in DMEM/F12 containing 10% fetal bovine serum (FBS), penicillin G (100 U ml-1), streptomycin sulfate (100 μg ml-1), and amphotericin B (0.25 μg ml-1) at 37° C. in a humidified incubator under 5% CO2. In all experiments, parallel assays were performed on the second to fourth passage of HRPE cells. HRPE cells were seeded into tissue culture 96-well assay plates (black walls with clear bottoms (Costar) at the same time and density from the same parent cultures, and grown in phenol red-free complete DMEM/F12 for at least 7 days. All experiments were repeated at least three times on different cell lines.
HRPE cells in 96-well plates were washed with Hanks' balanced salt solution (HBSS), containing Ca2+ and Mg2+, without phenol red. […] Other HRPE cells in 96-well plates were pre-incubated for 30 minutes with or without dihydroceramide C2 (50 μM), followed by stimulation with C2-ceramide (50 μM) for 2 hours in the presence and absence of the same inhibitor used during pre-incubation.
FA was measured with a photomicroscope equipped with narrow bandwidth excitation and emission filters of 465 nm and 535 nm, respectively.

human neural retina = experiment: Cell Death Detection ELISA of neural retinal apoptosis
Method: To evaluate neural retinal apoptosis, pieces of human neural retina were analyzed by using a Cell Death Detection […] kit. This photometric enzyme immunoassay provides the quantitative in vitro determination of cytoplasmic histone-associated DNA fragments (mono- and oligonucleosomes) after induced cell death (shown in FIG. 24).

CCCCCCCCCCCCC/C=C/[C@@H](O)[C@H](CO)NC(C)=O [C2-ceramide]
FA production with apoptotic stimulus (human retina cells): elevated flavoprotein autofluorescence (FA) | FA production with apoptotic stimulus (rat neural retina cells): elevated flavoprotein autofluorescence (FA) | FA after exposure to pro-apoptotic agent ([1]; HRPE cells): significantly elevated FA

c1ccc2c(c1)[I+]c1ccccc1-2 [DPI]
Effect of toxins on FA signal [1]: abrogate the FA signal

CC(=O)N[C@@H](CS)C(=O)O [N-acetyl-cysteine]
Effect on cell death by hydrogen peroxide (human neural retina; FIG. 24): attenuated | Effect on hydrogen peroxide-induced FA production (human retina cells; human retina cells): attenuated | Effect on hydrogen peroxide-induced FA production (rat neural retina cells; rat neural retina cells): attenuated | Effect on hydrogen peroxide-induced FA elevations ([1]; HRPE cells, NAC 1 mM, 30 minutes pre-incubation): completely blocked FA elevations

CCCCCCCCCCCCCCC[C@@H](O)[C@H](CO)NC(C)=O [dihydroceramide C2]
Effect on ceramide-induced FA increases ([1]; HRPE cells, dihydroceramide C2 50 μM, 30 minutes pre-incubation): completely blocked FA increases

OO [hydrogen peroxide]
Neural retinal apoptosis, avarage (cytoplasmic histone-associated DNA fragments) (human neural retina; 6 hr, H2O2 200, NAC 1 mM, control 1.0000): 4.3610 | Cell death induced by agent (human neural retina; FIG. 24): increased | FA production with apoptotic stimulus (human retina cells): induced | FA production with apoptotic stimulus (human retina cells; listed as H2O2): elevated flavoprotein autofluorescence (FA) | FA production with apoptotic stimulus (rat neural retina cells): induced | FA production with apoptotic stimulus (rat neural retina cells; listed as H2O2): elevated flavoprotein autofluorescence (FA) | FA after exposure to pro-apoptotic agent ([1]; HRPE cells): significantly elevated FA
